Reference: patent publication US20080280920A1, “Plasminogen Activator Inhibitor-1 Inhibitors” (priority 2005, published 2008)

Assays:
Type in all cases: cell-based, human
HS 578T = assay: NCI anticancer screen, HS 578T; details: Breast, 48 h; for GI50 / CC50: Homo sapiens; for CC50: read-out: LC50 (the source's name)
CCRF-CEM = assay: NCI anticancer screen, CCRF-CEM; details: Leukemia, 48 h
HOP-62 = assay: NCI anticancer screen, HOP-62; details: HOP-62, Non-Small Cell Lung, 48 h
RPMI-8226 = assay: NCI anticancer screen, RPMI-8226; details: RPMI-8226, Leukemia, 48 h
[1] = Homo sapiens, read-out: LC50 (the source's name)

COc1cc(CNCC2CCN(C(=O)OC(C)(C)C)CC2)cc(CN2CCN(c3ccccn3)CC2)c1O [Compound Q012132, 2-Methoxy-4-({[(N-t-butyloxycarbonylpiperidin-4-yl)methyl]amino}methyl)-6-[(4-pyridin-2-ylpiperazin-1-yl)methyl]phenol] gave a TGI (HS 578T) of 38.2 µM, a GI50 (HS 578T) of 16.4 µM and a CC50 (HS 578T) of 88.6 µM.
In the case of CC(C)(C)OC(=O)Nc1ccc(O)c(C(=O)NCCOC(=O)NCCNC(=O)c2cc(OCc3ccccc3)ccc2OCc2ccccc2)c1 [Compound Q012052, 2-[5-(BOC-amino)-2-hydroxybenzoylamino]ethyl 2-[2,5-bis-(benzyl-oxy)benzoylamino]ethylcarbamate], the GI50 (HS 578T) is reported as greater than 100 µM, the GI50 (CCRF-CEM; Homo sapiens) is reported as greater than 100 µM and the GI50 (HOP-62; Homo sapiens) is reported as greater than 100 µM. The GI50 (RPMI-8226; Homo sapiens) was 7.58 µM.
For CCOC(=O)c1ccc(CNCc2cc(CN3CCN(c4ccccn4)CC3)c(O)c(OC)c2)cc1 [Compound Q012135T], the TGI (HS 578T) was 41.7 µM, the GI50 (HS 578T) was 19.1 µM and the CC50 (HS 578T) was 90.9 µM. For the same compound, the GI50 (CCRF-CEM; Homo sapiens) was 14.1 µM, the CC50 (CCRF-CEM; [1]) was 14.1 µM and the TGI (CCRF-CEM) was 48.4 µM. The TGI (HOP-62) was 43.9 µM, the GI50 (HOP-62; Homo sapiens) was 20.6 µM and the LC50 (HOP-62; Homo sapiens) was 93.8 µM. It also gave a GI50 (RPMI-8226; Homo sapiens) of 7.14 µM, a CC50 (RPMI-8226; [1]) of 7.14 µM and a TGI (RPMI-8226) of 24.5 µM.
For COc1cc(CNc2ccc(C(=O)OC(C)(C)C)cc2)cc(CN2CCN(c3ccccn3)CC2)c1O [Compound Q012145T], the GI50 (HS 578T) was greater than 100 µM.
In the case of CCOC(=O)[C@H](Cc1ccccc1)NCc1cc(CN2CCN(c3ccccn3)CC2)c(O)c(OC)c1 [Compound Q012147T], the GI50 (HS 578T) is reported as 48.3 µM.
